For orientation: IC50 means the midpoint of a concentration-inhibition curve.

For one assay, the target named is T1, human orexin-2 receptor (Homo sapiens, UniProt O43614).
T1 construct: expressed in transfected cells; host or cells: CHO (Chinese hamster ovary) cells, grown under G418 selection
T1 sequence (O43614 1-444): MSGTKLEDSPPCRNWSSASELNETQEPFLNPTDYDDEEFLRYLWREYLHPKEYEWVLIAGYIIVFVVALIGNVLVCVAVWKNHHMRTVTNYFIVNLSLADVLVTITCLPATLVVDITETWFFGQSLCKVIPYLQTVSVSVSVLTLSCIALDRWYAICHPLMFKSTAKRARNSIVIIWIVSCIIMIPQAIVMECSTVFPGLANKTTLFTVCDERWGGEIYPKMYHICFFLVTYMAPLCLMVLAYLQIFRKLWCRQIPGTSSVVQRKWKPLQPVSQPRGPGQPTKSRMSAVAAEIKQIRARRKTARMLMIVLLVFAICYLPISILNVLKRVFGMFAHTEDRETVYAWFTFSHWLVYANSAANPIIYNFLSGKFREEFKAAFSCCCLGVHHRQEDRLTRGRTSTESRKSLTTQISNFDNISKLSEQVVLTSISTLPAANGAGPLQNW
Briefly: FLIPR intracellular calcium assay, orexin receptor antagonistic activity (OX2). Format: cell-based. The settings on record: CHO cells expressing human orexin-2 receptor, 3 nM orexin-A. As to the method: (§1) Chinese hamster ovary (CHO) cells expressing the human orexin-1 receptor and the human orexin-2 receptor, respectively, are grown in culture medium (Ham F-12 with L-Glutamine) containing 300 μg/ml G418, 100 U/ml penicillin, 100 μg/ml streptomycin and 10% heat inactivated fetal calf serum (FCS). The cells are seeded at 20′000 cells/well into 384-well black clear bottom sterile plates (Greiner). The seeded plates are incubated overnight at 37° C. in 5% CO2.
(§2) Human orexin-A as an agonist is prepared as 1 mM stock solution in MeOH:water (1:1), diluted in HBSS containing 0.1% bovine serum albumin (BSA), NaHCO3:0.375 g/l and 20 mM HEPES for use in the assay at a final concentration of 3 nM.
(§3) Antagonists are prepared as 10 mM stock solution in DMSO, then diluted in 384-well plates, first in DMSO, then in HBSS containing 0.1% bovine serum albumin (BSA), NaHCO3: 0.375 g/l and 20 mM HEPES.
(§4) On the day of the assay, 50 μl of staining buffer (HBSS containing 1% FCS, 20 mM HEPES, NaHCO3: 0.375 g/l, 5 mM probenecid (Sigma) and 3 μM of the fluorescent calcium indicator fluo-4 AM (1 mM stock solution in DMSO, containing 10% pluronic) is added to each well.
(§5) The 384-well cell-plates are incubated for 50 min at 37° C. in 5% CO2 followed by equilibration at RT for 30-120 min before measurement.
(§6) Within the Fluorescent Imaging Plate Reader (FLIPR2 or FLIPR Tetra, Molecular Devices), antagonists are added to the plate in a volume of 10 μl/well, incubated for 10 min and finally 10 μl/well of agonist is added. Fluorescence is measured for each well at 1 second intervals, and the height of each fluorescence peak is compared to the height of the fluorescence peak induced by 3 nM orexin-A with vehicle in place of antagonist. For each antagonist, the IC50 value (the concentration of compound needed to inhibit 50% of the agonistic response) is determined. Optimized conditions may be achieved by adjustment of pipetting speed and cell splitting regime. The calculated IC50 values of the compounds may fluctuate depending on the daily cellular assay performance. Fluctuations of this kind are known to those skilled in the art.
Background: A change in cytosolic calcium serves as a functional read-out for many receptors and channels.

The next assay deals with T2, human orexin-1 receptor (Homo sapiens, UniProt O43613).
T2 construct: expressed in transfected cells; host or cells: CHO (Chinese hamster ovary) cells, grown under G418 selection
T2 sequence (O43613 1-425): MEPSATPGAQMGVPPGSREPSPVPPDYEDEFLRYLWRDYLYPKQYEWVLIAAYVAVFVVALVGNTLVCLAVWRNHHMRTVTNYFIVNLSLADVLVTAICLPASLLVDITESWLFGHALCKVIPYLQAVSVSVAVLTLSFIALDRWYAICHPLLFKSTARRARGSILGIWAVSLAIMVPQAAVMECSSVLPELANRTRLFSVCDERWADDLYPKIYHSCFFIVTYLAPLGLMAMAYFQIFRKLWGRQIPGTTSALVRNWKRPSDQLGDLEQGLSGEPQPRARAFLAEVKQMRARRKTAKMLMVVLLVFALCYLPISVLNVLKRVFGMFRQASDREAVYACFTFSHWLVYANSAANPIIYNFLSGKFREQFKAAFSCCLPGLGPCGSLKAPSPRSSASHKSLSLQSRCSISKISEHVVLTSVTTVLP
Briefly: FLIPR intracellular calcium assay, orexin receptor antagonistic activity (OX1). The format is cell-based. The note with it: CHO cells expressing human orexin-1 receptor, 3 nM orexin-A. As to the method: as §1, §2, §3, §4, §5, §6

The mark [1] stands for this setting: FLIPR 2, geometric mean from n = 2 values.

As for `Cc1nc(C(=O)N(C)C(CNC(=O)c2c(C)nc3sccn23)C2CC2)c(-c2ccccc2)s1` (racemic) [Example 47, 6-Methyl-imidazo[2,1-b]thiazole-5-carboxylic acid {(RS)-2-cyclopropyl-2-[methyl-(2-methyl-5-phenyl-thiazole-4-carbonyl)-amino]ethyl}-amide], the IC50 was 0.05 µM on human orexin-2 receptor (measured with FLIPR 2) and 0.112 µM on human orexin-1 receptor (measured with FLIPR 2).

As for `Cc1nc(C(=O)NC(CNC(=O)c2c(C)nc3sccn23)C2CC2)c(-c2ccccc2)s1` (racemic) [Example 49, 6-Methyl-imidazo[2,1-b]thiazole-5-carboxylic acid {(RS)-2-cyclopropyl-2-[(2-methyl-5-phenyl-thiazole-4-carbonyl)-amino]-ethyl}-amide], the values for the IC50 on human orexin-2 receptor (measured with FLIPR 2) and on human orexin-1 receptor (measured with FLIPR 2) were 0.033 µM and 0.037 µM, respectively.

In the case of `Cc1nc(C(=O)N(Cc2ccccc2)C(CNC(=O)c2c(C)nc3sccn23)Cc2ccccc2)c(-c2ccccc2)s1` (racemic) [Example 71, 6-Methyl-imidazo[2,1-b]thiazole-5-carboxylic acid {(RS)-2-[benzyl-(2-methyl-5-phenyl-thiazole-4-carbonyl)-amino]-3-phenyl-propyl}-amide], the IC50 amounted to 0.05 µM on human orexin-2 receptor (measured with FLIPR 2) and 0.027 µM on human orexin-1 receptor (measured with FLIPR 2).

As to `Cc1nc2sccn2c1C(=O)NCC(Cc1ccccc1)NC(=O)c1ccccc1-c1ccccc1` (racemic) [Example 73, 6-Methyl-imidazo[2,1-b]thiazole-5-carboxylic acid {(RS)-2-[(biphenyl-2-carbonyl)-amino]-3-phenyl-propyl}-amide], the IC50 on human orexin-2 receptor (measured with FLIPR 2) was 0.019 µM; at human orexin-1 receptor (measured with FLIPR 2), 0.119 µM.

With `Cc1nc(C(=O)NC(CNC(=O)c2cccc3occc23)CC(C)C)c(-c2ccccc2)s1` (racemic) [Example 83, 2-Methyl-5-phenyl-thiazole-4-carboxylic acid ((RS)-1-{[(benzofuran-4-carbonyl)-amino]-methyl}-3-methyl-butyl)-amide], the IC50 on human orexin-2 receptor (measured with FLIPR 2) came out at 0.303 µM; at human orexin-1 receptor (measured with FLIPR 2), 0.437 µM.

Take `Cc1nc2sccn2c1C(=O)NCC(CC(C)C)NC(=O)c1ccccc1-c1ccccc1` (racemic) [Example 88, 6-Methyl-imidazo[2,1-b]thiazole-5-carboxylic acid {(RS)-2-[(biphenyl-2-carbonyl)-amino]-4-methyl-pentyl}-amide]: the IC50 was found to be 0.046 µM at human orexin-2 receptor (measured with FLIPR 2) and 0.084 µM at human orexin-1 receptor (measured with FLIPR 2).

For the compound `Cc1nc2sccn2c1C(=O)NCC(C)N(Cc1ccccc1)C(=O)c1ccccc1-c1ccccc1` (racemic) [Example 97, 6-Methyl-imidazo[2,1-b]thiazole-5-carboxylic acid {(RS)-2-[benzyl-(biphenyl-2-carbonyl)-amino]-propyl}-amide], the results for the IC50 at human orexin-2 receptor (measured with FLIPR 2) and on human orexin-1 receptor (measured with FLIPR 2) were 0.0058 µM and 0.0057 µM, respectively.

With `Cc1nc2sccn2c1C(=O)NCC(C(C)C)N(Cc1ccccc1)C(=O)c1ccccc1-c1ccccc1` (racemic) [Example 99, 6-Methyl-imidazo[2,1-b]thiazole-5-carboxylic acid {(RS)-2-[benzyl-(biphenyl-2-carbonyl)-amino]-3-methyl-butyl}-amide], the IC50 worked out at 0.718 µM at human orexin-2 receptor (measured with FLIPR 2) and 0.114 µM at human orexin-1 receptor (measured with FLIPR 2).

Consider `Cc1nc(C(=O)N(CCNC(=O)c2cccc3occc23)Cc2ccccc2)c(-c2ccc(F)cc2)s1` [Example 2, 5-(4-Fluoro-phenyl)-2-methyl-thiazole-4-carboxylic acid {2-[(benzofuran-4-carbonyl)-amino]-ethyl}-benzyl-amide], for which the half-maximal inhibitory concentration (IC50) on human orexin-2 receptor (setting [1]) was 0.035 µM; at human orexin-1 receptor (setting [1]), 0.242 µM.

`Cc1nc(C(=O)N(C)CCNC(=O)c2cccc3occc23)c(-c2ccc(F)cc2)s1` [Example 3, 5-(4-Fluoro-phenyl)-2-methyl-thiazole-4-carboxylic acid {2-[(benzofuran-4-carbonyl)-amino]-ethyl}-methyl-amide]: the values for the IC50 at human orexin-2 receptor (setting [1]) and at human orexin-1 receptor (setting [1]) were 0.027 µM and 0.15 µM, respectively.

For the origin of these results see patent US20110263662A1, “1,2-DIAMIDO-ETHYLENE DERIVATIVES AS OREXIN ANTAGONISTS” (priority 2007, published 2011).
